According to ChEMBL document CHEMBL1148509, “Design and semisynthesis of novel fredericamycin A derivatives with an improved antitumor profile” (Bioorg Med Chem Lett, 2006):

Experiments:
[1] = system: Panel (12 tumour cell lines); assay: Cytotoxicity against panel of 12 cell lines (LCL H460, MACL MCF7, LXFL 529L, LXFA 629L, MEXF 462NL, MEXF 514L, MAXF 401NL, RXF 944L, RXF 486L, UXF 1138L, PR PC3M, PRCL 22RV1); format: functional; details: Homo sapiens
[2] = system: Panel (10 carcinoma cell lines); assay: Inhibition of cell viability of panel of 10 cell lines (LCL H460, MACL MCF7, LXFL 529L, LXFA 629L, MEXF 462NL, MEXF 514L, MAXF 401NL, RXF 944L, RXF 486L, UXF 1138L) at 1 ug/mL; format: functional; details: Homo sapiens
Mus musculus [3] = assay: Toxicity in nude mouse xenografted with human UXF1138 at 1 mg/kg/day; format: organism-based; details: in vivo
Mus musculus [4] = assay: Decrease in body weight of nude mouse xenografted with human UXF1138 at 0.15 mg/kg/day, ip after 7 days; format: functional; parameters: scale not given: the % may be the effect or the level left; details: route intraperitoneal
Mus musculus [5] = assay: Toxicity in nude mouse xenografted with human UXF1138 at 3 mg/kg/day; format: organism-based; details: in vivo
UXF1138 = assay: Antitumor activity against human UXF1138 cell line xenografted in nude mouse at 0.15 mg/kg/day, ip after 7 days; details: route intraperitoneal
Mus musculus [6] = assay: Toxicity in nude mouse xenografted with human UXF1138 at 0.3 mg/kg/day; format: organism-based; details: in vivo

Row | Compound | IC70 [1] [µM] | inhibition at 1 µg/mL [2] [%] | further results
1 | COC1=CC(=O)c2c(O)c3c(c(O)c2C1=O)C(=O)[C@]1(CCc2c1c(O)c1c(O)nc(/C=N/OCCN4CCOCC4)cc1c2Br)C3=O | 0.101 | 88 | –
2 | COC1=CC(=O)c2c(O)c3c(c(O)c2C1=O)C(=O)[C@]1(CCc2c1c(O)c1c(O)nc(C=O)cc1c2Cl)C3=O | – | 25 | –
3 | C/C=C/C=C/c1cc2c(Cl)c3c(c(O)c2c(O)n1)[C@@]1(CC3)C(=O)c2c(O)c3c(c(O)c2C1=O)C(=O)C(OC)=CC3=O | 0.014 | 91 | –
4 | COC1=CC(=O)c2c(O)c3c(c(O)c2C1=O)C(=O)[C@]1(CCc2c1c(O)c1c(O)nc(C=O)cc1c2Br)C3=O | – | 42 | –
5 | C/C=C/C=C/c1cc2cc3c(c(O)c2c(O)n1)[C@@]1(CC3)C(=O)C2=C(C(=O)c3c(O)c(OCCN(C)C)cc(O)c3C2=O)C1=O | 1.02 | 94 | –
6 | COC1=CC(=O)c2c(O)c3c(c(O)c2C1=O)C(=O)[C@]1(CCc2cc4cc(C(O)C(O)C(O)C(C)O)nc(O)c4c(O)c21)C3=O (stereo partly drawn) | 0.186 | 85 | –
7 | COC1=CC(=O)c2c(O)c3c(c(O)c2C1=O)C(=O)[C@]1(CCc2c1c(O)c1c(O)nc(/C=N/N4CCN(C)CC4)cc1c2Br)C3=O | 0.658 | 73 | –
8 | COC1=CC(=O)c2c(O)c3c(c(O)c2C1=O)C(=O)[C@]1(CCc2c1c(O)c1c(O)nc(/C=C/c4csc(NC(C)=O)n4)cc1c2Br)C3=O | 0.512 | 83 | –
9 | COC1=CC(=O)c2c(O)c3c(c(O)c2C1=O)C(=O)[C@]1(CCc2c1c(O)c1c(O)nc(/C=N/OC(C)C)cc1c2Br)C3=O | 0.074 | 91 | –
10 | COC1=CC(=O)c2c(O)c3c(c(O)c2C1=O)C(=O)[C@]1(CCc2c1c(O)c1c(O)nc(/C=C/c4csc(C)n4)cc1c2Br)C3=O | 0.124 | 85 | –
11 | C/C=C/C=C/c1cc2c(Br)c3c(c(O)c2c(O)n1)[C@@]1(CC3)C(=O)C2=C(C(=O)c3c(O)c(NC4CC4)cc(O)c3C2=O)C1=O | 0.096 | 97 | –
12 | C/C=C/C=C/c1cc2c(Br)c3c(c(O)c2c(O)n1)[C@@]1(CC3)C(=O)C2=C(C(=O)c3c(O)c(NCCCC)cc(O)c3C2=O)C1=O | 0.302 | 94 | –
13 | C/C=C/C=C/c1cc2c(Br)c3c(c(O)c2c(O)n1)[C@@]1(CC3)C(=O)c2c(O)c3c(c(O)c2C1=O)C(=O)C(OCC)=CC3=O | 0.16 | 97 | –
14 | C/C=C/C=C/c1cc2cc3c(c(O)c2c(O)n1)[C@@]1(CC3)C(=O)C2=C(C(=O)c3c(O)c(N(C)C)cc(O)c3C2=O)C1=O | 0.306 | 96 | –
15 | COC1=CC(=O)c2c(O)c3c(c(O)c2C1=O)C(=O)[C@]1(CCc2c1c(O)c1c(O)nc(/C=N/OCc4ccccc4)cc1c2Br)C3=O | 0.05 | 91 | –
16 | COC1=CC(=O)c2c(O)c3c(c(O)c2C1=O)C(=O)[C@]1(CCc2cc4cc(/C=C/C(C)=O)nc(O)c4c(O)c21)C3=O | – | 59 | –
17 | C/C=C/C=C/c1cc2cc3c(c(O)c2c(O)n1)[C@@]1(CC3)C(=O)C2=C(C(=O)c3c(O)c(N4CCOCC4)cc(O)c3C2=O)C1=O | 0.077 | 98 | –
18 | C/C=C/C=C/c1cc2c(I)c3c(c(O)c2c(O)n1)[C@@]1(CC3)C(=O)c2c(O)c3c(c(O)c2C1=O)C(=O)C(OC)=CC3=O | 0.011 | 93 | Activity (Mus musculus [3]): Toxic; Activity (Mus musculus [4]): -3.1%; Activity (Mus musculus [5]): Toxic; Activity (UXF1138): 51%; Activity (Mus musculus [6]): Non-toxic
19 | COC1=CC(=O)c2c(O)c3c(c(O)c2C1=O)C(=O)[C@]1(CCc2c1c(O)c1c(O)nc(/C=C/c4csc(N)n4)cc1c2Br)C3=O | 0.612 | 77 | –
20 | C/C=C/C=C/c1cc2c(Br)c3c(c(O)c2c(O)n1)[C@@]1(CC3)C(=O)c2c(O)c3c(c(O)c2C1=O)C(=O)C(OC)=CC3=O | 0.0081 | 92 | –
21 | C/C=C/C=C/c1cc2c(F)c3c(c(O)c2c(O)n1)[C@@]1(CC3)C(=O)c2c(O)c3c(c(O)c2C1=O)C(=O)C(OC)=CC3=O | 0.02 | 91 | –
22 | C/C=C/C=C/c1cc2cc3c(c(O)c2c(O)n1)[C@@]1(CC3)C(=O)C2=C(C(=O)c3c(O)c(NC(C)C)cc(O)c3C2=O)C1=O | 0.634 | 91 | –
23 | COC1=CC(=O)c2c(O)c3c(c(O)c2C1=O)C(=O)[C@]1(CCc2cc4cc(C=O)nc(O)c4c(O)c21)C3=O | – | 31 | –
24 | CC[C@@]1(O)C(=O)OCc2c1cc1n(c2=O)Cc2cc3ccccc3nc2-1 [CAMPTOTHECIN] | 0.0086 | – | –
25 | COc1cccc2c1C(=O)c1c(O)c3c(c(O)c1C2=O)C[C@@](O)(C(=O)CO)C[C@@H]3O[C@H]1C[C@H](N)[C@H](O)[C@H](C)O1 [DOXORUBICIN] | 0.039 | 91 | –
26 | C/C=C/C=C/c1cc2cc3c(c(O)c2c(=O)[nH]1)[C@@]1(CC3)C(=O)c2c(O)c3c(c(O)c2C1=O)C(=O)C(OC)=CC3=O [FDM A] | 0.517 | 82 | –
27 | CC(=O)O[C@H]1C(=O)[C@@]2(C)[C@H]([C@H](OC(=O)c3ccccc3)[C@]3(O)C[C@H](OC(=O)[C@H](O)[C@@H](NC(=O)c4ccccc4)c4ccccc4)C(C)=C1C3(C)C)[C@]1(OC(C)=O)CO[C@@H]1C[C@@H]2O [PACLITAXEL] | 0.0007 | – | –
